Key:
[1] = molecular target: T1, HCV NS5B (Hepatitis C virus genotype 1b, UniProt Q9WMX2); test: HCV NS5B RdRp enzyme assay (standard or modified); assay type: biochemical; conditions: HCV NS5B RdRp genotype 1b enzyme; standard or modified assay not stated
T1 construct: The protein was expressed with an 18 amino acid C-terminal truncation to enhance the solubility; made in house; host or cells: E. coli BL21(DE3), pET21a
Description: HCV NS5B RdRp cloning, expression, and purification. The cDNA encoding the NS5B protein of HCV, genotype 1b, was cloned into the pET21a expression vector. The protein was expressed with an 18 amino acid C-terminal truncation to enhance the solubility. The E. coli competent cell line BL21(DE3) was used for expression of the protein. Cultures were grown at 37° C. for ˜4 hours until the cultures reached an optical density of 2.0 at 600 nm. The cultures were cooled to 20° C. and induced with 1 mM IPTG. Fresh ampicillin was added to a final concentration of 50 μg/ml and the cells were grown overnight at 20° C.
Cell pellets (3 L) were lysed for purification to yield 15-24 mgs of purified NS5B. The lysis buffer consisted of 20 mM Tris-HCl, pH 7.4, 500 mM NaCl, 0.5% triton X-100, 1 mM DTT, 1 mM EDTA, 20% glycerol, 0.5 mg/ml lysozyme, 10 mM MgCl2, 15 ug/ml deoxyribonuclease I, and Complete TM protease inhibitor tablets (Roche). After addition of the lysis buffer, frozen cell pellets were resuspended using a tissue homogenizer. To reduce the viscosity of the sample, aliquots of the lysate were sonicated on ice using a microtip attached to a Branson sonicator. The sonicated lysate was centrifuged at 100,000×g for 1 hr at 4° C. and filtered through a 0.2 μm filter unit (Corning).
The protein was purified using two sequential chromatography steps: Heparin sepharose CL-6B and polyU sepharose 4B (Pharmacia). The chromatography buffers were identical to the lysis buffer but contained no lysozyme, deoxyribonuclease I, MgCl2 or protease inhibitor and the NaCl concentration of the buffer was adjusted according to the requirements for charging the protein onto the column. Each column was eluted with a NaCl gradient which varied in length from 5-50 column volumes depending on the column type. After the final chromatography step, the resulting purity of the enzyme is >90% based on SDS-PAGE analysis. The enzyme was aliquoted and stored at −80° C.
Standard HCV NS5B RdRp enzyme assay. HCV RdRp genotype 1b assays were run in a final volume of 60 μl in 96 well plates (Corning 3600). The assay buffer is composed of 20 mM Hepes, pH 7.5, 2.5 mM KCl, 2.5 mM MgCl2, 1 mM DTT, 1.6 U RNAse inhibitor (Promega N2515), 0.01 mg/ml BSA (Sigma B6917), and 2% glycerol. All compounds were serially diluted (3-fold) in DMSO and diluted further in water such that the final concentration of DMSO in the assay was 2%. HCV RdRp genotype 1b enzyme was used at a final concentration of 28 nM. A polyA template was used at 6 nM, and a biotinylated oligo-dT12 primer was used at 180 nM final concentration. Template was obtained commercially (Amersham 27-4110). Biotinylated primer was prepared by Sigma Genosys. 3H-UTP was used at 0.6 μCi (0.29 μM total UTP). Reactions were initiated by the addition of enzyme, incubated at 30° C. for 60 min, and stopped by adding 25 μl of 50 mM EDTA containing SPA beads (4 μg/μl, Amersham RPNQ 0007). Plates were read on a Packard Top Count NXT after >1 hr incubation at room temperature.
Modified HCV NS5B RdRp enzyme assay. A modified enzyme assay was performed essentially as described for the standard enzyme assay except for the following: The biotinylated oligo dT12 primer was precaptured on streptavidin-coated SPA beads by mixing primer and beads in assay buffer and incubating at room temperature for one hour. Unbound primer was removed after centrifugation. The primer-bound beads were resuspended in 20 mM Hepes buffer, pH 7.5 and used in the assay at final concentrations of 20 nM primer and 0.67 μg/μl beads. Order of addition in the assay: enzyme (1.75 nM) was added to diluted compound followed by the addition of a mixture of template (0.36 nM), 3H-UTP (0.6 μCi, 0.29 μM), and primer-bound beads, to initiate the reaction; concentrations given are final. Reactions were allowed to proceed for 4 hours at 30° C.
IC50 values for compounds were determined using seven different [I]. […]

[2] = test system: HCV replicon cells; test: HCV replicon FRET / luciferase assay; assay type: cell-based; conditions: 50% reduction in FRET or luciferase activity
Description: FRET Assay Preparation. The HCV FRET screening assay was performed in 96-well cell culture plates. The FRET peptide (Anaspec, Inc.) (Taliani et al., Anal. Biochem. 1996, 240, 60-67) contains a fluorescence donor, EDANS, near one end of the peptide and an acceptor, DABCYL, near the other end. The fluorescence of the peptide is quenched by […] resonance energy transfer (RET) between the donor and the acceptor, but as the NS3 protease cleaves the peptide the products are released from RET quenching and the fluorescence of the donor becomes apparent. The assay reagent was made as follows: 5× cell Luciferase cell culture lysis reagent from Promega (#E153A) diluted to 1× with dH2O, NaCl added to 150 mM final, the FRET peptide diluted to 20 μM final from a 2 mM stock.
To prepare plates, HCV replicon cells, with or without a Renilla luciferase reporter gene, were trypsinized and plated in a 96-well plate with titrated test compounds added in columns 3 through 12; columns 1 and 2 contained a control compound (HCV control inhibitor), and the bottom row contained cells with DMSO only. The plates were then placed in a CO2 incubator at 37° C.
Assays. Subsequent to addition of the test compounds described above (FRET Assay Preparation), at various times the plate was removed and Alamar blue solution (Trek Diagnostics, #00-100) was added to measure cellular toxicity. After reading in a Cytoflour 4000 instrument (PE Biosystems), plates were rinsed with PBS and then used for FRET assay by the addition of 30 ul of the FRET peptide assay reagent described above (FRET Assay Preparation) per well. The plate was then placed into the Cytoflour 4000 instrument which had been set to 340 excite/490 emission, automatic mode for up to 20 cycles and the plate read in a kinetic mode. Typically, the signal to noise using an endpoint analysis after the reads was at least three-fold. Alternatively, after Alamar blue reading, plates were rinsed with PBS, then used for luciferase assay using the Promega Dual-Glo Luciferase Assay System or the Promega EnduRen Live Cell Substrate assay.
Compound analysis was performed by quantification of the relative HCV replicon inhibition and the relative cytotoxicity values. To calculate cytoxicity values, the average Alamar Blue fluorescence signals from the control wells were set as 100% non-toxic. The individual signals in each of the compound test wells were then divided by the average control signal and multiplied by 100% to determine […]. To calculate the HCV replicon inhibition values, an average background value was obtained from the two wells containing the highest amount of HCV control inhibitor at the end of the assay period. These numbers were similar to those obtained from naïve Huh-7 cells. The background numbers were then subtracted from the average signal obtained from the control wells and this number was used as 100% activity. The individual signals in each of the compound test wells were then divided by the averaged control values after background subtraction and multiplied by 100% to determine percent activity. EC50 values were calculated as the concentration which caused a 50% reduction in FRET or luciferase activity. The two numbers generated for the compound plate, percent cytoxicity and percent activity, were used to determine compounds of interest for further analysis.

T1 sequence (Q9WMX2 2420-2992): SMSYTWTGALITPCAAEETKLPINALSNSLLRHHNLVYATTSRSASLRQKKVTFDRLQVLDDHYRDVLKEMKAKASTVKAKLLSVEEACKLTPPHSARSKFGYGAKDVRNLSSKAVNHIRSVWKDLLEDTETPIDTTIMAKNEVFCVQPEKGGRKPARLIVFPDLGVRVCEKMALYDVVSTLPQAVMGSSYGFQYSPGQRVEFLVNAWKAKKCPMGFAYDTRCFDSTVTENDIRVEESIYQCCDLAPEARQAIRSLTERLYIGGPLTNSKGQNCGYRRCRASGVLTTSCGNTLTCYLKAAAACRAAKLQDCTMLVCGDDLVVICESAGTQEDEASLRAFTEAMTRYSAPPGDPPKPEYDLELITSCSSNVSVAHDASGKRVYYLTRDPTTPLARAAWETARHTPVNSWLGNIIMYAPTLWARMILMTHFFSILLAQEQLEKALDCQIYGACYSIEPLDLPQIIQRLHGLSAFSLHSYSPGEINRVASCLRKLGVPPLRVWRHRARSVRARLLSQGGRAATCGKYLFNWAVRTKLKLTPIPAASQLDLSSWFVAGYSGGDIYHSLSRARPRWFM

| Structure (SMILES) | IC50 [1] | EC50 ([2]; Hepatitis C virus) | EC50 [2] |
| --- | --- | --- | --- |
| COc1ccc2c(c1)C1CC1(C(=O)N1CC3CN(C(=O)OC(C)(C)C)CC3C1)Cn1c-2c(C2CCCCC2)c2ccc(C(=O)NS(=O)(=O)N(C)C)cc21 (stereo not drawn) | 4.58 to 500 nM | 4.58 to 500 nM |  |
| COc1ccc2c(c1)C1CC1(C(=O)N1CCN3CCCC3C1)Cn1c-2c(C2CCCCC2)c2ccc(C(=O)NS(N)(=O)=O)cc21 (stereo not drawn) | 4.58 to 500 nM | 4.58 to 500 nM |  |
| COc1ccc2c(c1)C1CC1(C(=O)N1CCN3CCCC3C1)Cn1c-2c(C2CCCCC2)c2ccc(C(=O)NS(=O)(=O)C(C)C)cc21 (stereo not drawn) | 4.58 to 500 nM | 4.58 to 500 nM |  |
| COc1ccc2c(c1)C1CC1(C(=O)N1CCC[C@H]3CN(Cc4ccccc4)C[C@H]31)Cn1c-2c(C2CCCCC2)c2ccc(C(=O)NS(=O)(=O)C3CC3)cc21 (stereo partly drawn) | 4.58 to 500 nM | 4.58 to 500 nM |  |
| COc1ccc2c(c1)C1CC1(C(=O)N1CCC[C@H]3CN(Cc4ccccc4)C[C@H]31)Cn1c-2c(C2CCCCC2)c2ccc(C(=O)NS(N)(=O)=O)cc21 (stereo partly drawn) | 4.58 to 500 nM | 4.58 to 500 nM |  |
| COc1ccc2c(c1)C1CC1(C(=O)N1CC3CCCN(C(=O)OC(C)(C)C)C3C1)Cn1c-2c(C2CCCCC2)c2ccc(C(=O)NS(=O)(=O)C3CC3)cc21 (stereo not drawn) | 4.58 to 500 nM | 4.58 to 500 nM |  |
| COc1ccc2c(c1)C1CC1(C(=O)N1CCN3CCCC3C1)Cn1c-2c(C2CCCCC2)c2ccc(C(=O)NS(=O)(=O)N3CCC3)cc21 (stereo not drawn) | 4.58 to 500 nM | 4.58 to 500 nM |  |
| COc1ccc2c(c1)C1CC1(C(=O)N1CCN3CCC[C@H]3C1)Cn1c-2c(C2CCCCC2)c2ccc(C(=O)NS(C)(=O)=O)cc21 (stereo partly drawn) | 4.58 to 500 nM | 4.58 to 500 nM |  |
| COc1ccc2c(c1)C1CC1(C(=O)N1CCN3CCC[C@H]3C1)Cn1c-2c(C2CCCCC2)c2ccc(C(=O)NS(=O)(=O)N3CCOCC3)cc21 (stereo partly drawn) | 4.58 to 500 nM | 4.58 to 500 nM |  |
| COc1ccc2c(c1)C1CC1(C(=O)N1CCN3CCC[C@H]3C1)Cn1c-2c(C2CCCCC2)c2ccc(C(=O)NS(=O)(=O)C3CC3)cc21 (stereo partly drawn) | 4.58 to 500 nM | 4.58 to 500 nM |  |
| COc1ccc2c(c1)C1CC1(C(=O)N1CCN3CCC[C@@H]3C1)Cn1c-2c(C2CCCCC2)c2ccc(C(=O)NS(C)(=O)=O)cc21 (stereo partly drawn) | 4.58 to 500 nM | 4.58 to 500 nM |  |
| COc1ccc2c(c1)C1CC1(C(=O)N1CCN3CCC[C@@H]3C1)Cn1c-2c(C2CCCCC2)c2ccc(C(=O)NS(=O)(=O)N3CCOCC3)cc21 (stereo partly drawn) | 4.58 to 500 nM | 4.58 to 500 nM |  |
| COc1ccc2c(c1)C1CC1(C(=O)N1CCN3CCC[C@@H]3C1)Cn1c-2c(C2CCCCC2)c2ccc(C(=O)NS(=O)(=O)C3CC3)cc21 (stereo partly drawn) | 4.58 to 500 nM | 4.58 to 500 nM |  |
| COc1ccc2c(c1)C1CC1(C(=O)N1CC3CCCNC3C1)Cn1c-2c(C2CCCCC2)c2ccc(C(=O)NS(=O)(=O)C3CC3)cc21 (stereo not drawn) | 4.58 to 500 nM | 4.58 to 500 nM |  |
| COc1ccc2c(c1)C1CC1(C(=O)N1CC3CNCC3C1)Cn1c-2c(C2CCCCC2)c2ccc(C(=O)NS(=O)(=O)C3CC3)cc21 (stereo not drawn) | 4.58 to 500 nM | > 1000 nM |  |
| COc1ccc2c(c1)C1CC1(C(=O)N1CCN3CCC[C@@H]3C1)Cn1c-2c(C2CCCCC2)c2ccc(C(=O)NS(=O)(=O)N3CCC3)cc21 (stereo partly drawn) | 4.58 to 500 nM | 4.58 to 500 nM |  |
| COc1ccc2c(c1)C1CC1(C(=O)N1CCN3CCC[C@H]3C1)Cn1c-2c(C2CCCCC2)c2ccc(C(=O)NS(=O)(=O)N3CCC3)cc21 (stereo partly drawn) | 4.58 to 500 nM | 4.58 to 500 nM |  |
| COc1ccc2c(c1)[C@@H]1C[C@]1(C(=O)N1CCN3CCC[C@H]3C1)Cn1c-2c(C2CCCCC2)c2ccc(C(=O)NS(=O)(=O)N(C)C)cc21 | 4.58 to 500 nM | 4.58 to 500 nM |  |
| COc1ccc2c(c1)[C@@H]1C[C@]1(C(=O)N1CCN3CCC[C@@H]3C1)Cn1c-2c(C2CCCCC2)c2ccc(C(=O)NS(=O)(=O)N(C)C)cc21 | 4.58 to 500 nM | 4.58 to 500 nM |  |
| COc1ccc2c(c1)C1CC1(C(=O)N1CC3CCCN(C)C3C1)Cn1c-2c(C2CCCCC2)c2ccc(C(=O)NS(=O)(=O)C3CC3)cc21 (stereo not drawn) | 4.58 to 500 nM | 4.58 to 500 nM |  |
| COc1ccc2c(c1)C1CC1(C(=O)N1CC3CN(C)CC3C1)Cn1c-2c(C2CCCCC2)c2ccc(C(=O)NS(=O)(=O)C3CC3)cc21 (stereo not drawn) | 4.58 to 500 nM | 4.58 to 500 nM |  |
| COc1ccc2c(c1)C1CC1(C(=O)N1CC3CN(C(C)=O)CC3C1)Cn1c-2c(C2CCCCC2)c2ccc(C(=O)NS(=O)(=O)N(C)C)cc21 (stereo not drawn) | 4.58 to 500 nM | 4.58 to 500 nM |  |
| COc1ccc2c(c1)C1CC1(C(=O)N1CC3CN(C(C)=O)CC3C1)Cn1c-2c(C2CCCCC2)c2ccc(C(=O)NS(=O)(=O)C3CC3)cc21 (stereo not drawn) | 4.58 to 500 nM | 4.58 to 500 nM |  |
| COc1ccc2c(c1)C1CC1(C(=O)N1CC3CCCN(C(=O)OC(C)(C)C)C3C1)Cn1c-2c(C2CCCCC2)c2ccc(C(=O)NS(=O)(=O)N(C)C)cc21 (stereo not drawn) [drawing 20] | 4.58 to 500 nM |  | 4.58 to 500 nM |
